Assay results from paper PMC8443738, “Interplay between membrane active host defense peptides and heme modulates their assemblies and in vitro activity” (Scientific Reports, 2021).
Values joined by “and” are separate entries in the source; they are usually repeats but may differ in a detail not shown here. Identical values can stand only once. Counter-ions that a name gives are not always drawn. Like-named read-outs stand apart in the source and are kept apart here.

Tests used:
EBC-1 cells [1] = test: Cell morphology by bright field microscopy; assay type: cell-based, human; conditions: 3 h exposure; for cell morphology: 33 µM
Description: To visualize cell morphology changes, microscopic images of EBC-1 cells were captured. EBC-1 cells were plated in a 96-well flat bottom tissue culture plate and treated with peptide, heme compounds, and their mixtures as described in the above section. Microscopic images of the adherent cells were taken after the first 3 h of the treatment using an Olympus CKX41 microscope (Hamburg, Germany, objective: 20×).

[2] = cited from earlier work
Description: Based on CD spectral features, apparent dissociation constants in the 20–50 μM range could be estimated for the peptide-hemin interactions as a single dose of a molar equivalent of hemin (25 μM) was enough here to reach close-to-saturation levels for several peptides (Fig. 1). […] It should be noted that classical considerations on affinity determination might fail for the ...

EBC-1 cells [3] = test: Cytostasis (viability) assay, Alamar Blue; assay type: cell-based, human; conditions: for live cell %: mean ± SEM; for dead cells: alone
Description: EBC-1 (squamous cell carcinoma, metastatic, origin: bronchi, JCRB No: JCRB0820[85],[86], originally purchased from Thermo Fisher Scientific and provided by the National Institute of Oncology, Budapest, Hungary) cells were maintained as an adherent culture in DMEM medium (Lonza) containing 10% FBS (Gibco) and supplemented with 2 mM of L-glutamine (Lonza), 1% non-essential amino acids (Gibco), 1 mM sodium pyruvate (Sigma-Aldrich), 1% penicillin–streptomycin (10,000 units penicillin and 10 mg streptomycin/ml, Gibco), at 37 °C in a humidified atmosphere containing 5% CO2.
For testing cytostatic effects, 3500 cells per well were plated in 96-well flat bottom tissue culture plates (Sarstedt, Nümbrecht, Germany) in complete DMEM medium. LL-37 stock solution was prepared in serum-free medium (SFM) at 200 µM, while heme compounds were dissolved first in 10 mM NaOH at 3 mM, sterile filtered, and diluted tenfold in SFM. Cells were incubated with the peptide, small molecules, or peptide-small molecule mixtures for 24 h. Then cells were washed three times with SFM and cultured further for 72 h in complete medium. Cytostatic activity was determined using the Alamar Blue assay, where 20 µl Alamar Blue (resazurin sodium salt, Sigma-Aldrich) solution (0.15 mg/ml, dissolved in PBS, pH 7.4) was added to each well. Following a 3 h incubation, fluorescence (λEx = 530/30 and λEm = 610/10 nm) was read using a Synergy H4 multi-mode microplate reader (BioTek, Winooski, VT, USA). Live cell percentage of treated cells was calculated compared to control cells treated with medium only. All measurements were performed in triplicates, and live cell % values together with SEM are presented.

[4] = hemin-to-peptide ratio of 1:3; no lipid; cited from earlier work
[5] = Intrinsic Trp fluorescence quenching by hemin; assay type: binding; conditions: PBS, 25 °C
Description: Spectra were collected using a Jobin Yvon Fluoromax-3 spectrofluorometer at 25 °C in PBS. Spectra were recorded three times, averaged, and corrected by subtracting an appropriate blank. The Trp fluorophore was excited at 295 nm, and emission was monitored from 305 to 400 nm. 2 µM peptide was titrated with subsequent addition of hemin (up to 20 μM) in the presence and absence of liposomes (100 µM total lipid).

erythrocytes = conditions: cited from earlier work
From the text: Based on our results on model membranes, and in vitro assays on the selected cell line above, further activity alterations of the AMPs upon complex formation with hemin may be speculated. First of all, AMP–heme interaction could result in reduced antimicrobial activity by lowering the active peptide concentration. This can be achieved either by sequestering the free available peptide fraction by heme not allowing membrane interaction or by precluding formation of the active membrane-bound conformation of the peptides in the hemin-complexed membrane-associated form. A further interesting point ...

[6] = Dynamic light scattering of peptide-hemin assemblies; assay type: physicochemical; conditions: three-component systems: 25 µM peptide, 75 µM hemin, 635 µM lipid (PC or PC/PG), PBS, various mixing order
Description: Particle size and size distribution of the peptide-small molecule mixtures were measured at 20 °C using a W130i dynamic light scattering device (DLS, Avid Nano Ltd., High Wycombe, UK) with a diode laser (660 nm) and a photodiode detector. Low volume disposable cuvettes with 1 cm path-length were used (UVette, Eppendorf Austria GmbH). Samples prepared for CD experiments were measured after completing the titration. The time-dependent autocorrelation function was measured for 10 s, repeated 10 times.

Question: Which cell morphology alterations (EBC-1 cells [1]; 17 µM LL-37) does the source give for “LLGDFFRKSKEKIGKEFKRIVQRIKDFLRNLVPRTES [LL-37, the only human cathelicidin, a host defense peptide]” here?
Answer: shrinkage, and membrane defects

Question: And the Kd ([2]; calculated, read-out: Kd, interaction with hemin)?
Answer: 20 to 36 µM

Question: And the live cell percentage (EBC-1 cells [3]; EBC-1, 17 µM LL-37 administered together with hemin or biliverdin)?
Answer: 25–35%

Question: What about the live cell % (EBC-1 cells [3]; EBC-1, 17 µM LL-37 alone, relative to untreated control, n = 3) of the same molecule?
Answer: 4.7 ± 1.3% and ~ 5%

Question: And the live cell % (EBC-1 cells [3]; EBC-1, 17 µM LL-37 with biliverdin at 1:3 ratio, n = 3)?
Answer: 34 ± 6%

Question: What about the live cell % (EBC-1 cells [3]; EBC-1, 17 µM LL-37 with hemin at 1:1 peptide to hemin ratio, n = 3) of the same molecule?
Answer: 36 ± 12%

Question: What about the live cell % (EBC-1 cells [3]; EBC-1, 17 µM LL-37 with hemin at 1:3 ratio, n = 3) of the same molecule?
Answer: 23 ± 6%

Question: What about the cells killed (EBC-1 cells [3]; EBC-1, LL-37 at 17 µM, 24 h treatment + 72 h culture, Alamar Blue, n = 3) of the same molecule?
Answer: ~ 90%

Question: And the cells killed (EBC-1 cells [3]; EBC-1, LL-37 at 50 µM, 24 h treatment + 72 h culture, Alamar Blue, n = 3)?
Answer: almost all cells

Question: What about the cytostatic effect (EBC-1 cells [3]; EBC-1, LL-37 at ~5 µM, 24 h treatment + 72 h culture, Alamar Blue, n = 3) of the same molecule?
Answer: no significant effect

Question: Which results are given for `C=CC1=C(C)/C(=C/C2=NC(=C\c3[nH]c(/C=C4\NC(=O)C(C)=C4C=C)c(C)c3CCC(=O)O)/C(CCC(=O)O)=C2C)NC1=O` [biliverdin, biliverdin HCl]?
Answer: cell morphology (EBC-1 cells [1]): Non-damaged cells; toxicity (EBC-1 cells [3]; EBC-1, up to 100 µM (Fig. S12)): No significant toxicity; cytostatic effect (EBC-1 cells [3]; EBC-1, up to 100 µM, 24 h treatment + 72 h culture, Alamar Blue): No cytostatic effect

Question: With melittin as the molecule, how does the “remaining Trp fluorescence intensity on hemin quenching” value [4] read?
Answer: 5–10%

Question: What about the “Trp fluorescence quenching by hemin” value ([5]; 2 µM peptide with PC liposomes) of the same molecule?
Answer: complete signal loss

Question: What about the Kd ([2]; read-out: binding strength, interaction with hemin) of the same molecule?
Answer: 60 to 120 µM

Question: What about the hemolytic effects (erythrocytes) of the same molecule?
Answer: strong

Question: Which “Trp fluorescence quenching by hemin” value ([5]; 2 µM peptide, 10 µM hemin, no lipid) does the source give for CM15 here?
Answer: total signal loss

Question: What about the “average particle size of aggregates (DLS)” value [6] of the same molecule?
Answer: ≤ 1 µm

Question: What about the hemolytic effects (erythrocytes) of the same molecule?
Answer: moderate

Question: For hemin, which cell morphology (EBC-1 cells [1]) is on record?
Answer: Non-damaged cells

Question: What about the “concentration with dose-dependent cytostatic effect” value (EBC-1 cells [3]; EBC-1 (Fig. S12)) of the same molecule?
Answer: ≥ 33 µM

Question: What about the dead cells (EBC-1 cells [3]; EBC-1, 33 µM, 24 h treatment + 72 h culture, Alamar Blue) of the same molecule?
Answer: ~ 20%

Question: What about the dead cells (EBC-1 cells [3]; EBC-1, 100 µM, 24 h treatment + 72 h culture, Alamar Blue) of the same molecule?
Answer: ~60%

Question: What about the “concentration at which cytostatic” value (EBC-1 cells [3]; EBC-1, compound alone, 24 h treatment + 72 h culture, Alamar Blue) of the same molecule?
Answer: > 10 µM
